Usually GI50 stands for the concentration giving 50% growth inhibition. A low value points to more potent growth inhibition. As usually defined, the IC50 is the concentration needed to halve the response being measured. Read a high IC50 as weaker potency.

Molecules are shown by their SMILES. Bounds are passed on as bounds.

One assay deals with THP-1. The assay is described as follows: Cell growth inhibition assay (CellTiter-Glo), THP-1. Type of assay: cell-based, human. The conditions noted are these: THP-1 cells, 4 days; for GI50: Homo sapiens, 96 h, half-maximal growth inhibition; for THP-1 TGI: total growth inhibition. The procedure:
(§1) Cell Growth Inhibition Assay
(§2) The human leukemia cell lines MV-4-11, THP-1 and K-562 were employed to characterize the effect of BET inhibitors on cellular proliferation and viability. Cells were obtained from the American Type Culture Collection (ATCC) and cultured at 37° C. in a humidified 5% CO2 incubator in the following media: MV-4-11: DMEM high glucose (Animed #1-26F01-I), 10% FCS (Animed #2-01F26-I), 4 mM L-Glutamine (Animed #5-10K50), 1 mM Sodium Pyruvate (Animed # G03625P), 1× Penicillin-Streptomycin (Animed # F12478P); K-562: Iscove's MEM (Animed #1-28F16-I), 10% FCS (Animed #2-01F26-I), 4 mM L-Glutamine (Animed #5-10K50), 1× Penicillin-Streptomycin (Animed # F12478P); THP-1: RPMI-1640 (Animed #1-41F01-I), 10% FCS (Animed #2-01F26-I), 2 mM L-Glutamine (Animed #5-10K50), 10 mM HEPES (Animed #5-31F100), 1 mM Sodium Pyruvate (Animed # G03625P), 1× Penicillin-Streptomycin (Animed # F12478P). The AML lines MV-4-11 and THP-1 are very sensitive to BET inhibitors and show massive cell death upon BET inhibition (Zuber et al., Nature, 478 (2011), 524-8). Compound-mediated suppression of cell proliferation/viability was assessed by quantification of cellular ATP levels using the CellTiter-Glo (CTG) reagent (Promega). Briefly, cells were seeded in 20 μl fresh medium into 384-well plates, followed by addition of 5 μL medium containing compound dilutions at 5-fold their final intended concentration. Dose-response effects were assessed by 3-fold serial dilutions of the test compound, starting at 10 μM. Following incubation of the cells for 4 days at 37° C. and 5% CO2, the effect of inhibitors on cell viability was quantified following addition of 20 μl CTG and luminescence quantification (integration time: 100 ms) as per vendor manual, using a correspondingly equipped Tecan M200 multi-mode platereader (TECAN, Switzerland). For data analysis, the assay background value determined in wells containing medium, but no cells, was subtracted from all data points. To enable differentiation of cytotoxic from cytostatic compounds, the number of viable cells is assessed relative to that observed at the time of compound addition using a separate cell plate (day 0). The effect of a particular test compound concentration on cell proliferation/viability is expressed as percentage of the background- and day 0-corrected luminescence reading obtained for cells treated with vehicle only (DMSO, 0.1% final concentration), which is set as 100%, whereas that luminescence reading for wells containing medium is set as −100%. Compound concentrations leading to half-maximal (IC50) and total growth inhibition (TGI) were determined using standard four parameter curve fitting.

The test system of a further assay is K-562. The experiment in a line: Cell growth inhibition assay (CellTiter-Glo), K-562. Type of assay: cell-based, human. As to conditions: K-562 cells, 4 days; for GI50: Homo sapiens, K562, 96 h, half-maximal growth inhibition; for K-562 TGI: total growth inhibition. The procedure: as §1, §2
Another assay has as its target BRD3 (Homo sapiens (Human), UniProt Q15059). The experiment in a line: TR-FRET in-vitro binding assay for BRD3. The conditions noted are these: 45 nM His-Brd3(20-477), acetyl-histone H4 (AcK 5, 8, 12, 16) peptide. On the procedure: (§3) TR-FRET In-Vitro Binding Assays for BRD2, BRD3, and BRD4: All assays were performed in 384-well microtiter plates. […] Liquid handling and incubation steps were done on an Innovadyne Nanodrop Express equipped with a robotic arm (Thermo CatX, Perkin Elmer/Caliper Twister II) and an incubator (Liconic STX40, Thermo Cytomat 2C450). The assay plates were prepared by addition of 50 nl per well of compound solution in 90% DMSO HummingBird nanodispenser (Zinsser Analytic). […] Reactions were incubated at 30° C. for 35 minutes. […] After 35 minutes incubation at 30° C., plates were measured in a Perkin Elmer EnVision multilabel reader. […] The stock solutions were stored at […] if not used immediately. For the test procedure the vials were defrosted and identified by a scanner whereby a working sheet was generated that guided the subsequent working steps. Compound dilutions were made in 96 well plates. This format enabled the assay of maximally […] at 8 concentrations (single points) including 4 reference compounds, if desired (known BET inhibitors from the prior art, for this and other assays of the type disclosed herein). The dilution protocol included the production of “pre-dilution plates”, “master plates” and “assay plates”. Polypropylene 96-well plates were used as pre-dilution plates. […] All dilution steps were done on a HamiltonSTAR robot. […] Identical “assay plates” were then prepared by pipetting 50 nL each of compound dilutions of the “master plates” into 384-well “assay plates” by means of a HummingBird 384-channel dispenser. These plates were used directly for the assay which was performed in a total volume of 13.55 μL.
On the technique in general: TR-FRET usually uses a lanthanide donor and a delayed reading to cut background.

In a further assay the target is BRD4 (Homo sapiens (Human), UniProt O60885). The experiment in a line: TR-FRET in-vitro binding assay for BRD4. The conditions noted are these: 45 nM His-Brd4(44-477), acetyl-histone H4 (AcK 5, 8, 12, 16) peptide. The procedure: as §3
The next assay concerns the target CREBBP (Homo sapiens (Human), UniProt Q92793). The experiment in a line: AlphaScreen in-vitro binding assay for CREBBP. The conditions noted are these: 324 nM His-CREBBP (1081-1197), acetyl-histone H4 (AcK 5, 8, 12) peptide. On the procedure: AlphaScreen In-Vitro Binding Assay for CREBBP
In order to assess bromodomain selectivity, we set up a binding assay using the bromodomain encoded by the CREBBP gene. […] The assay was started by stepwise addition of 4.5 μL per well of bromo domain protein (50 mM HEPES, pH 7.5, 0.005% Tween20, 0.02% BSA, 150 mM NaCl, 324 nM His-CREBBP (1081-1197) (custom production at Viva Biotech Ltd.)) and 4.5 μL per well of peptide solution (50 mM HEPES, pH 7.5, 0.005% Tween20, 0.02% BSA, 150 mM NaCl, 120 nM acetyl-histone H4 (AcK 5, 8, 12) (Biosyntan GmbH)). Reactions were incubated at 30° C. for 35 minutes. Subsequently 4.5 μL per well detection mix (50 mM HEPES, pH 7.5, 0.005% Tween20, 0.02% BSA, 150 mM NaCl, 45 μg/ml Ni-chelate acceptor beads, 45 μg/mL streptavidin-donor beads) (Perkin Elmer)) were added. After 60 minutes incubation at room temperature, plates were measured in a Perkin Elmer EnVision multilabel reader. IC50 values were determined from percent inhibition values at different compound concentrations by non-linear regression analysis.
Test compounds were dissolved in DMSO (10 mM) and transferred into 1.4 mL flat bottom or V-shaped Matrix tubes carrying a unique 2D matrix. The stock solutions were stored at […] if not used immediately. For the test procedure the vials were defrosted and identified by a scanner whereby a working sheet was generated that guided the subsequent working steps. Compound dilutions were made in 96 well plates. This format enabled the assay of maximally […] at 8 concentrations (single points) including 4 reference compounds, if desired (known BET inhibitors from the prior art, for this and other assays of the type disclosed herein). The dilution protocol included the production of “pre-dilution plates”, “master plates” and “assay plates”.
Polypropylene 96-well plates were used as pre-dilution plates. A total of 4 pre-dilution plates were prepared including 10 test compounds each on the plate positions A1-A10, one standard compound at A11 and one DMSO control at […]. All dilution steps were done on a HamiltonSTAR robot.
30 μL of individual compound dilutions including standard compound and controls of the 4 “pre-dilution plates” were transferred into a 384-well “master plate” including the following concentrations 10000, […], 1000, 300, 100, 30, 10 and 3 μM, respectively in 90% of DMSO.
Identical “assay plates” were then prepared by pipetting 50 nL each of compound dilutions of the “master plates” into 384-well “assay plates” by means of a HummingBird 384-channel dispenser. These plates were used directly for the assay which was performed in a total volume of 13.55 μL.
In general terms: Alpha assays give light when donor and acceptor beads are brought close together.

The test system of another assay is MV-4-11. The experiment in a line: Cell growth inhibition assay (CellTiter-Glo), MV-4-11. As to conditions: MV-4-11 cells, 4 days; for GI50: Homo sapiens, MV4-11, 96 h, half-maximal growth inhibition; for MV-4-11 TGI: total growth inhibition. Type of assay: cell-based, human. The procedure: as §1, §2
(ATP-based viability assays read luminescence as a measure of living cells.)

BRD3, sequence (Q15059 20-477): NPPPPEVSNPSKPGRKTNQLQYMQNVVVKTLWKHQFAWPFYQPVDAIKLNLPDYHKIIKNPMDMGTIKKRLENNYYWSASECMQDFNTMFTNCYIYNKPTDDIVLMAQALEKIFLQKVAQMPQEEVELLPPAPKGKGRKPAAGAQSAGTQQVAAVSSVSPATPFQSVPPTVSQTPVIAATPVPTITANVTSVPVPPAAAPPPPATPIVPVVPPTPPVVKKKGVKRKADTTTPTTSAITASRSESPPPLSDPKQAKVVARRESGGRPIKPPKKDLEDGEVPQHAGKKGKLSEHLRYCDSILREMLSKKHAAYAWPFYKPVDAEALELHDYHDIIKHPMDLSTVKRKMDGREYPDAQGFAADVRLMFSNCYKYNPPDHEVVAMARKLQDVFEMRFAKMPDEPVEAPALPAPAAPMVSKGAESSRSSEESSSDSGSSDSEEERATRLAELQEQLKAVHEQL
CREBBP, sequence (Q92793 1081-1197): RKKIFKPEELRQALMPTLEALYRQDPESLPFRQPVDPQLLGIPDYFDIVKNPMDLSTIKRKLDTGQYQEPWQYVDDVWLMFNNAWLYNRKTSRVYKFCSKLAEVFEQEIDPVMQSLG

As to `Cc1cn(CC(=O)N(C)C)c2c1C(=O)N(c1cc(C)c3nnc(C)n3c1)C2c1ccc(Cl)cc1` (centres unmarked) [Example 129, 2-(6-(4-chlorophenyl)-5-(3,8-dimethyl-[1,2,4]triazolo[4,3-a]pyridin-6-yl)-3-methyl-4-oxo-5,6-dihydropyrrolo[3,4-b]pyrrol-1(4H)-yl)-N,N-dimethylacetamide], the GI50 turned out to be 188 nM with THP-1, 492 nM in the assay on K-562 and 96.3 nM with MV-4-11. Further, in the assay on THP-1, the “THP-1 TGI” value worked out at 439.5 nM. The “K-562 TGI” value in the assay with K-562 is over 10000 nM. Besides, the IC50 on BRD3 amounted to 58 nM; on BRD4 it was 54 nM; on CREBBP it was 8100 nM. The “MV-4-11 TGI” value with MV-4-11 was determined as 143 nM.
`Cc1cc(N2C(=O)c3c(C4CC4)cn(C)c3C2c2ccc(Cl)cc2)cn2c(C)nnc12` (centres unmarked) [Example 35, 6-(4-chlorophenyl)-3-cyclopropyl-5-(3,8-dimethyl-[1,2,4]triazolo[4,3-a]pyridin-6-yl)-1-methyl-5,6-dihydropyrrolo[3,4-b]pyrrol-4(1H)-one]: in the assay with THP-1, the GI50 came out at 8.94 nM and the “THP-1 TGI” value was 17.85 nM. Moreover, in the assay with K-562, halving of growth (GI50) required 45.9 nM and the “K-562 TGI” value is over 10000 nM. The molecule also displayed an IC50 at BRD3 of 15 nM. The concentration for half-maximal inhibition (IC50) at CREBBP stood at 6100 nM. For the same molecule, in the assay with MV-4-11, halving of growth (GI50) required 4.08 nM and the “MV-4-11 TGI” value was 8.67 nM.
For `Cc1cc2c(n1C)C(c1ccc(Cl)cc1)N(c1cc(Cl)c(=O)n(C)c1)C2=O` (centres unmarked) [Example 74, 5-(5-chloro-1-methyl-6-oxo-1,6-dihydropyridin-3-yl)-6-(4-chlorophenyl)-1,2-dimethyl-5,6-dihydropyrrolo[3,4-b]pyrrol-4(1H)-one], in the assay on THP-1, growth was halved (GI50) at 92.7 nM and the “THP-1 TGI” value came out at 171.5 nM. For the same molecule, in the assay on K-562, the GI50 stood at 273 nM and the “K-562 TGI” value was over 10000 nM. In addition, the 50% inhibitory concentration (IC50) on BRD4 was 23 nM. In the assay on MV-4-11, the GI50 stood at 90.1 nM and the “MV-4-11 TGI” value was 142 nM.
Consider `Cn1ccc2c1C(c1ccc(Cl)cc1)N(c1cc(Cl)c(=O)n(C)c1)C2=O` (centres unmarked) [Example 76, 5-(5-chloro-1-methyl-6-oxo-1,6-dihydropyridin-3-yl)-6-(4-chlorophenyl)-1-methyl-5,6-dihydropyrrolo[3,4-b]pyrrol-4(1H)-one], for which, in the assay on THP-1, halving of growth (GI50) required 118 nM and the “THP-1 TGI” value was 238 nM. In the assay with K-562, halving of growth (GI50) required 368 nM and the “K-562 TGI” value is over 10000 nM. Besides, on BRD4, the 50% inhibitory concentration (IC50) was determined as 37 nM. For the same molecule, in the assay on MV-4-11, the GI50 stood at 108 nM and the “MV-4-11 TGI” value was 178 nM.
Turning to `Cc1cc(N2C(=O)c3c(C4CC4)cn(C)c3[C@H]2c2ccc(Cl)cc2)cn2c(C)nnc12` [Example 36, (R)-6-(4-chlorophenyl)-3-cyclopropyl-5-(3,8-dimethyl-[1,2,4]triazolo[4,3-a]pyridin-6-yl)-1-methyl-5,6-dihydropyrrolo[3,4-b]pyrrol-4(1H)-one], in the assay with THP-1, the 50% growth inhibitory concentration (GI50) came to 3.36 nM and the “THP-1 TGI” value amounted to 10.91 nM. In addition, in the assay on K-562, the 50% growth inhibitory concentration (GI50) was 17.9 nM and the “K-562 TGI” value was over 10000 nM. The same molecule registered a 50% inhibitory concentration (IC50) on BRD3 of 15 nM. Moreover, the half-inhibitory concentration (IC50) on CREBBP amounted to 4100 nM. In addition, in the assay on MV-4-11, the concentration for 50% growth inhibition (GI50) turned out to be 2.15 nM and the “MV-4-11 TGI” value came to 6.22 nM.
Turning to `Cc1cc(N2C(=O)c3c(C4CC4)cn(C4COC4)c3C2c2ccc(Cl)cc2)cn2c(C)nnc12` (centres unmarked) [Example 18, 6-(4-chlorophenyl)-3-cyclopropyl-5-(3,8-dimethyl-[1,2,4]triazolo[4,3-a]pyridin-6-yl)-1-(oxetan-3-yl)-5,6-dihydropyrrolo[3,4-b]pyrrol-4(1H)-one], in the assay with THP-1, growth was halved (GI50) at 4.63 nM and the “THP-1 TGI” value was determined as 13.35 nM. For the same molecule, in the assay on K-562, growth was halved (GI50) at 16.4 nM and the “K-562 TGI” value is over 10000 nM. The molecule also registered a half-maximal inhibitory concentration (IC50) on BRD4 of 12 nM. In addition, in the assay with MV-4-11, it took 2.86 nM to inhibit growth by half (GI50) and the “MV-4-11 TGI” value was 8.13 nM.
In the case of `CC(=O)Nc1cn(C)c2c1C(=O)N(c1cc(C)c3nnc(C)n3c1)[C@@H]2c1ccc(Cl)cc1` [Example 136, (R)—N-(6-(4-chlorophenyl)-5-(3,8-dimethyl-[1,2,4]triazolo[4,3-a]pyridin-6-yl)-1-methyl-4-oxo-1,4,5,6-tetrahydropyrrolo[3,4-b]pyrrol-3-yl)acetamide], in the assay with THP-1, the GI50 was 33.7 nM and the “THP-1 TGI” value stood at 79.2 nM. Moreover, in the assay on K-562, the GI50 was determined as 119 nM and the “K-562 TGI” value is over 10000 nM. At CREBBP, this molecule showed an IC50 of 1400 nM. Besides, in the assay with MV-4-11, growth was halved (GI50) at 19.8 nM and the “MV-4-11 TGI” value came out at 39.5 nM.

For the origin of these results see US9550796B2, “Pyrrolopyrrolone derivatives and their use as BET inhibitors” (NOVARTIS AG, priority 2013, dated 2017).
